Reference: patent US20230203081A1, “LINCOSAMIDE ANTIBIOTICS AND USES THEREOF” (President and Fellows of Harvard College, priority 2020, published 2023)
≈ marks a conversion by molar mass, not a printed value.

Columns and labels:
Experiment in all cases: microbe, parasite or virus in culture
Assay type in all cases: cell-based
[1] = system: broad panel of different clinical isolates
Summary of the method: (§1)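 Per CLSI, MICs by broth microdilution or agar dilution; strains other than streptococci and anaerobes were sub-cultured overnight at 35° C on blood agar, with a final broth inoculum of 5×10^5 CFU/mL.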

[2] = system: S. aureus MP-549 msrA; conditions: Staphylococcus aureus, MP549MSRA
Summary of the method: as §1

[3] = system: E. coli ΔTolC; conditions: Escherichia coli
Summary of the method: as §1

[4] = system: S. aureus BAA 977 iErmA; conditions: Staphylococcus aureus
Summary of the method: as §1

[5] = system: E. coli armA; conditions: Escherichia coli
Summary of the method: as §1

For `CSC1O[C@H]([C@H](NC(=O)[C@H]2NC[C@@H]3C[C@H](CC(C)C)CCO[C@H]32)[C@H](C)Cl)C(O)[C@@H](O)[C@H]1O` (some centres unmarked) [FSA-513018b], the MIC ([1]; Enterococcus faecium, VRE, E. faecium HAV#319, Line R & Vanco R) was at most 0.06 µg/mL, the MIC ([1]; Enterococcus faecium, VRE, E. faecium HAV#320, Clinical) was 0.25 µg/mL (≈ 0.505 µM) and the MIC ([1]; Enterococcus faecium, VRE, E. faecium HAV#326, Clinical) was 0.25 µg/mL (≈ 0.505 µM). It also gave an MIC ([1]; Escherichia coli, E. coli HAV#501, Clinical) of 8 µg/mL (≈ 16.2 µM), an MIC ([1]; Escherichia coli, E. coli HAV#503, Clinical) of 8 µg/mL (≈ 16.2 µM) and an MIC ([1]; Escherichia coli, E. coli HAV#511, Clinical) of 4 µg/mL (≈ 8.08 µM). For the same compound, the MIC ([1]; Escherichia coli, E. coli HAV#512, Clinical) was 8 µg/mL (≈ 16.2 µM), the MIC ([1]; Escherichia coli, E. coli HAV#513, Clinical) was 16 µg/mL (≈ 32.3 µM) and the MIC ([1]; Escherichia coli, E. coli HAV#514, Clinical) was 8 µg/mL (≈ 16.2 µM). It also gave an MIC ([1]; Escherichia coli, E. coli HAV#516, ESBL-producing) of 8 µg/mL (≈ 16.2 µM), an MIC ([1]; Haemophilus influenzae, ATCC9007, H. influenzae HAV#376, ATCC-9007) of 0.5 µg/mL (≈ 1.01 µM) and an MIC ([1]; K. pneumnoniae HAV#402, FQ-R) of 16 µg/mL (≈ 32.3 µM). For the same compound, the MIC ([1]; Klebsiella pneumoniae, K. pneumoniae HAV#041, Clinical, KPC) was 32 µg/mL (≈ 64.6 µM), the MIC ([1]; Klebsiella pneumoniae, K. pneumoniae HAV#402, FQ-R) was 16 µg/mL (≈ 32.3 µM) and the MIC ([1]; Klebsiella pneumoniae, K. pneumoniae HAV#404, Clinical) was 32 µg/mL (≈ 64.6 µM). The MIC ([1]; Klebsiella pneumoniae, K. pneumoniae HAV#405, Clinical) was 16 µg/mL (≈ 32.3 µM), the MIC ([1]; Klebsiella pneumoniae, K. pneumoniae HAV#406, Clinical) was 64 µg/mL (≈ 129 µM) and the MIC ([1]; Klebsiella pneumoniae, K. pneumoniae HAV#407, Clinical) was 128 µg/mL (≈ 259 µM). It also gave an MIC ([1]; Klebsiella pneumoniae, K. pneumoniae HAV#408, Clinical) of 128 µg/mL (≈ 259 µM), an MIC ([1]; Klebsiella pneumoniae, K. pneumoniae HAV#409, ESBL-producing) of 16 µg/mL (≈ 32.3 µM) and an MIC ([1]; Neisseria gonorrhoeae, N. gonorrhoeae HAV#701, Clinical) of 0.125 µg/mL (≈ 0.252 µM). For the same compound, the MIC ([1]; Neisseria gonorrhoeae, N. gonorrhoeae HAV#702, Clinical) was 0.125 µg/mL (≈ 0.252 µM), the MIC ([1]; Staphylococcus aureus, MRSA, S. aureus HAV#218, Line R) was 0.125 µg/mL (≈ 0.252 µM) and the MIC ([1]; Staphylococcus aureus, MRSA, S. aureus HAV#220, Line R) was over 128 µg/mL. It also gave an MIC ([1]; Staphylococcus aureus, MSSA, S. aureus HAV#219, Line R) of over 128 µg/mL, an MIC ([1]; Staphylococcus aureus, S. aureus HAV#051, mecA, norA, spcl, ermA, aad1, aac6′-aph2″) of at most 0.03 µg/mL and an MIC ([1]; Staphylococcus aureus, S. aureus HAV#052, mecA, norA, fosB, blaZ) of at most 0.03 µg/mL. The MIC ([1]; Staphylococcus aureus, S. aureus HAV#053 mecA, norA, fosB) was at most 0.03 µg/mL, the MIC ([1]; Staphylococcus aureus, S. aureus HAV#211, Clinical) was 2 µg/mL (≈ 4.04 µM) and the MIC ([1]; Staphylococcus aureus, S. aureus HAV#212, Clinical) was 0.06 µg/mL (≈ 0.121 µM). For the same compound, the MIC ([1]; Staphylococcus aureus, S. aureus HAV#213, Clinical) was 0.06 µg/mL (≈ 0.121 µM), the MIC ([1]; Staphylococcus aureus, S. aureus HAV#214, Clinical) was 0.03 µg/mL (≈ 0.0606 µM) and the MIC ([1]; Staphylococcus aureus, S. aureus HAV#215, Clinical) was 0.06 µg/mL (≈ 0.121 µM). For the same compound, the MIC ([1]; Staphylococcus aureus, S. aureus HAV#216, Clinical, cfr) was 2 µg/mL (≈ 4.04 µM), the MIC ([1]; Staphylococcus aureus, VISA, S. aureus HAV#203, Clinical (VISA)) was 1 µg/mL (≈ 2.02 µM) and the MIC ([1]; Staphylococcus epidermidis, S. epidermidis HAV# 275 Clinical, cfr) was 8 µg/mL (≈ 16.2 µM). The MIC ([1]; Staphylococcus epidermidis, S. epidermidis HAV# 276, cfr) was over 16 µg/mL, the MIC ([1]; Staphylococcus epidermidis, S. epidermidis HAV#277, Line R) was 16 µg/mL (≈ 32.3 µM) and the MIC ([1]; Staphylococcus epidermidis, S. epidermidis HAV#278 Line R) was 32 µg/mL (≈ 64.6 µM). For the same compound, the MIC ([1]; Staphylococcus epidermidis, S. epidermidis HAV#279, Line R) was 0.125 µg/mL (≈ 0.252 µM), the MIC ([1]; Staphylococcus haemolyticus, S. haemolyticus 5052, Line R & Methicillin R) was 0.06 µg/mL (≈ 0.121 µM) and the MIC ([1]; Staphylococcus haemolyticus, S. haemolyticus HAV#252, Line R & Methicillin R) was 0.125 µg/mL (≈ 0.252 µM). It also gave an MIC ([1]; Streptococcus pneumoniae, ATCC700673, S. pneumoniae HAV#352, ATCC 700673, MDR) of 0.5 µg/mL (≈ 1.01 µM), an MIC ([1]; Streptococcus pneumoniae, ATCCBAA255, S. pneumoniae HAV#354, ATCC-BAA-255) of 0.125 µg/mL (≈ 0.252 µM) and an MIC ([1]; Streptococcus pneumoniae, ATCCBAA334, S. pneumoniae HAV#353, ATCC-BAA-334) of 0.125 µg/mL (≈ 0.252 µM). It also gave an MIC ([1]; Streptococcus pneumoniae, S. pneumoniae HAV#356, Clinical) of 0.25 µg/mL (≈ 0.505 µM), an MIC ([1]; Streptococcus pneumoniae, S. pneumoniae HAV#358, Clinical) of 0.125 µg/mL (≈ 0.252 µM) and an MIC ([2]; S. aureus MP-549 msrA) of at most 0.06 µg/mL. For the same compound, the MIC ([2]; S. aureus HAV#032, MP-549, MSR(A)) was 0.06 µg/mL (≈ 0.121 µM), the MIC ([3]; E. coli HAV#038, ΔTolC) was 0.5 µg/mL (≈ 1.01 µM) and the MIC ([3]; E. coli ΔTolC) was 0.5 µg/mL (≈ 1.01 µM). It also gave an MIC ([4]; BAA977) of at most 0.06 µg/mL, an MIC ([4]; BAA-977 / MRSA) of 0.06 µg/mL (≈ 0.121 µM) and an MIC ([4]; BAA-977 / MRSA, 24 h) of 2 µg/mL (≈ 4.04 µM). It also gave an MIC ([5]; E. coli HAV#056, Clinical, armA) of 8 µg/mL (≈ 16.2 µM) and an MIC ([5]; E. coli armA) of 8 µg/mL (≈ 16.2 µM).
